This is an account of results in PubChem BioAssay AID1259411 (Chemical Carcinogenesis Research Information System (CCRIS), 2018).

Calls of active or inactive are those of the source. How the calls were made is not given here.

The subject of this data set is rodent carcinogenicity bioassays, tumor incidence. In words: CCRIS carcinogenicity studies. The settings on record: Dose: 0, Dose: 0. The gist of the method:
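Archive of carcinogenicity, mutagenicity, tumor promotion and tumor inhibition results drawn from journals, NCI reports and other sources, expert-reviewed; covers 1985-2011 and is no longer updated.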

Consider `Nc1ccn([C@H]2CC[C@@H](CO)O2)c(=O)n1`, for which the carcinogen call reads like this: (Species: MOUSE, Strain/Sex: B6C3F1/FEMALE, Route: GAVAGE, 500, 1000 MG/KG BW A DAY FOR 6 MO (STUDY DURATION: 6 MO), 500, 1000 MG/KG BW A DAY FOR 6 MO (STUDY DURATION: 6 MO), Tumor Site: Type of Lesion: THYMUS: LYMPHOMA) “active; positive”; (Species: MOUSE, Strain/Sex: B6C3F1/FEMALE, Route: GAVAGE, 500, 1000 MG/KG/D FOR 13 WK (STUDY DURATION: 13 WK), 500, 1000 MG/KG/D FOR 13 WK (STUDY DURATION: 13 WK)) “inactive; negative”; (Species: MOUSE, Strain/Sex: B6C3F1/FEMALE, Route: GAVAGE, 500, 1000 MG/KG/D FOR 13 WK FOLLOWED BY 4 WK OF RECOVERY (STUDY DURATION: 17 WK), 500, 1000 MG/KG/D FOR 13 WK FOLLOWED BY 4 WK OF RECOVERY (STUDY DURATION: 17 WK)) “inactive; negative”; (Species: MOUSE, Strain/Sex: B6C3F1/FEMALE, Route: GAVAGE, 500, 1000 MG/KG/D FOR 13 WK FOLLOWED BY 13 WK FOR RECOVERY (STUDY DURATION: 26 WK), 500, 1000 MG/KG/D FOR 13 WK FOLLOWED BY 13 WK FOR RECOVERY (STUDY DURATION: 26 WK), Tumor Site: Type of Lesion: THYMUS: LYMPHOMA) “active; positive”; (Species: MOUSE, Strain/Sex: B6C3F1/FEMALE, Route: GAVAGE, 1000 MG/KG BW A DAY FOR 3 MO FOLLOWED BY A 3-MO RECOVERY PERIOD (STUDY DURATION: 6 MO), Tumor Site: Type of Lesion: THYMUS: LYMPHOMA, SPLEEN: LYMPHOMA) “active; positive”; (Species: MOUSE, Strain/Sex: B6C3F1/MALE, Route: GAVAGE, 500, 1000 MG/KG BW A DAY FOR 6 MO (STUDY DURATION: 6 MO), 500, 1000 MG/KG BW A DAY FOR 6 MO (STUDY DURATION: 6 MO), Tumor Site: Type of Lesion: THYMUS: LYMPHOMA) “active; positive”. For the same molecule, the carcinogen call (Species: MOUSE, Strain/Sex: B6C3F1/MALE, Route: GAVAGE, 500, 1000 MG/KG/D FOR 13 WK (STUDY DURATION: 13 WK), 500, 1000 MG/KG/D FOR 13 WK (STUDY DURATION: 13 WK)) was “inactive; negative”; the carcinogen call (Species: MOUSE, Strain/Sex: B6C3F1/MALE, Route: GAVAGE, 1000 MG/KG BW A DAY FOR 3 MO FOLLOWED BY A 3 MO RECOVERY PERIOD (STUDY DURATION: 6 MO), Tumor Site: Type of Lesion: THYMUS: LYMPHOMA) was “active; positive”; the carcinogen call (Species: MOUSE, Strain/Sex: NIH SWISS/FEMALE, Route: GAVAGE, 500, 1000 MG/KG BW A DAY FOR 6 MO (STUDY DURATION: 6 MO), 500, 1000 MG/KG BW A DAY FOR 6 MO (STUDY DURATION: 6 MO), Tumor Site: Type of Lesion: THYMUS: LYMPHOMA, SPLEEN: LYMPHOMA, LYMPH NODE: LYMPHOMA, Tumor Site: Type of Lesion: THYMUS: LYMPHOMA, SPLEEN: LYMPHOMA, LYMPH NODE: LYMPHOMA) is “active; positive”; the carcinogen call (Species: MOUSE, Strain/Sex: NIH SWISS/FEMALE, Route: GAVAGE, 1000 MG/KG BW A DAY FOR 3 MO FOLLOWED BY A 3-MO RECOVERY PERIOD (STUDY DURATION: 6 MO), Tumor Site: Type of Lesion: THYMUS: LYMPHOMA, SPLEEN: LYMPHOMA, LYMPH NODE: LYMPHOMA, Tumor Site: Type of Lesion: THYMUS: LYMPHOMA, SPLEEN: LYMPHOMA, LYMPH NODE: LYMPHOMA) was “active; positive”; the carcinogen call (Species: MOUSE, Strain/Sex: NIH SWISS/MALE, Route: GAVAGE, 500, 1000 MG/KG BW A DAY FOR 6 MO (STUDY DURATION: 6 MO), 500, 1000 MG/KG BW A DAY FOR 6 MO (STUDY DURATION: 6 MO), Tumor Site: Type of Lesion: THYMUS: LYMPHOMA) was “active; positive”; the carcinogen call (Species: MOUSE, Strain/Sex: NIH SWISS/MALE, Route: GAVAGE, 1000 MG/KG BW A DAY FOR 3 MO FOLLOWED BY A 3-MO RECOVERY PERIOD (STUDY DURATION: 6 MO), Tumor Site: Type of Lesion: THYMUS: LYMPHOMA) was “active; positive”.
As to `c1ccc2nc3c(cc2c1)c1c(c2ccccc23)O1`, the carcinogen call is “active; positive” (Species: MOUSE, Strain/Sex: SWISS/FEMALE, Route: INTRAPERITONEAL, 1.05 UMOL GIVEN AS 150 NMOL IN 5 µL DMSO WITHIN 24 HR OF BIRTH, 300 NMOL IN 10 µL DMSO ON D 8 OF LIFE, AND 600 NMOL I, Tumor Site: Type of Lesion: LUNG: ADENOMA) and “inactive; negative” (Species: MOUSE, Strain/Sex: SWISS/MALE, Route: INTRAPERITONEAL, 1.05 UMOL GIVEN AS 150 NMOL IN 5 µL DMSO WITHIN 24 HR OF BIRTH, 300 NMOL IN 10 µL DMSO ON D 8 OF LIFE, AND 600 NMOL I).
Regarding `CCN(CC)CC#CC(C)(C)OC(=O)C(O)(c1ccccc1)C1CCCCC1` (stereo not given), the carcinogen call (Species: MOUSE, Strain/Sex: B6C3F1/FEMALE, Route: ORAL, 30, 100, 300 MG/KG/D IN DIET FOR 78 WK (STUDY DURATION: 78 WK), 30, 100, 300 MG/KG/D IN DIET FOR 78 WK (STUDY DURATION: 78 WK)) is “inactive; negative”; the carcinogen call (Species: MOUSE, Strain/Sex: B6C3F1/MALE, Route: ORAL, 30, 100, 300 MG/KG/D IN DIET FOR 78 WK (STUDY DURATION: 78 WK), 30, 100, 300 MG/KG/D IN DIET FOR 78 WK (STUDY DURATION: 78 WK)) is “inactive; negative”; the carcinogen call (Species: RAT, Strain/Sex: F344/FEMALE, Route: ORAL, 30, 100 MG/KG/D IN DIET FOR 2 YR (STUDY DURATION: 2 YR), 30, 100 MG/KG/D IN DIET FOR 2 YR (STUDY DURATION: 2 YR)) was “inactive; negative”; the carcinogen call (Species: RAT, Strain/Sex: F344/MALE, Route: ORAL, 10, 30, 100 MG/KG/D IN DIET FOR 2 YR (STUDY DURATION: 2 YR), 10, 30, 100 MG/KG/D IN DIET FOR 2 YR (STUDY DURATION: 2 YR)) is “inactive; negative”.
As to `COc1c(O)c2c(c3cc(C(=O)N4CCc5c4c(O)c(OC)c4[nH]c(C(=O)N6C[C@H]7C[C@@]78C6=CC(=O)c6[nH]cc(C)c68)cc54)[nH]c13)CCN2C(N)=O`, the carcinogen call (Species: MOUSE, Strain/Sex: STRAIN-A/MALE,FEMALE, Route: INTRAVENOUS, 2, 4, 8 UG/KG ONCE (STUDY DURATION: 24 WK), 2, 4, 8 UG/KG ONCE (STUDY DURATION: 24 WK), Tumor Site: Type of Lesion: LUNG: ADENOMA) was “active; positive”.
As for `Cc1cc(C)c(N)cc1C`, the carcinogen call runs as follows: (Species: MOUSE, Strain/Sex: B6C3F1/FEMALE, Route: ORAL, 50, 100 PPM IN DIET FOR 101 WK (STUDY DURATION: 101 WK), 50, 100 PPM IN DIET FOR 101 WK (STUDY DURATION: 101 WK), Tumor Site: Type of Lesion: LIVER: HEPATOCELLULAR CARCINOMA) “active; positive”; (Species: MOUSE, Strain/Sex: B6C3F1/MALE, Route: ORAL, 50, 100 PPM IN DIET FOR 101 WK (STUDY DURATION: 101 WK), 50, 100 PPM IN DIET FOR 101 WK (STUDY DURATION: 101 WK), Tumor Site: Type of Lesion: LIVER: HEPATOCELLULAR CARCINOMA) “equivocal”; (Species: RAT, Strain/Sex: F344/FEMALE, Route: ORAL, 200, 800 PPM IN DIET FOR 101 WK (STUDY DURATION: 101 WK), 200, 800 PPM IN DIET FOR 101 WK (STUDY DURATION: 101 WK), Tumor Site: Type of Lesion: LUNG: ALVEOLAR/BRONCHIOLAR ADENOMA OR CARCINOMA, LIVER: HEPATOCELLULAR CARCINOMA OR NEOPLASTIC NODULE) “active; positive”; (Species: RAT, Strain/Sex: F344/MALE, Route: ORAL, 200, 800 PPM IN DIET FOR 101 WK (STUDY DURATION: 101 WK), 200, 800 PPM IN DIET FOR 101 WK (STUDY DURATION: 101 WK), Tumor Site: Type of Lesion: LIVER: BILE DUCT CARCINOMA, HEPATOCELLULAR CARCINOMA OR NEOPLASTIC NODULE) “active; positive”.
With `OB(O)O`, the carcinogen call by setting is: (Species: MOUSE, Strain/Sex: B6C3F1/FEMALE, Route: ORAL, 2500, 5000 PPM IN DIET FOR 103 WK (STUDY DURATION: 105 WK), 2500, 5000 PPM IN DIET FOR 103 WK (STUDY DURATION: 105 WK)) “inactive; negative”; (Species: MOUSE, Strain/Sex: B6C3F1/MALE, Route: ORAL, 2500, 5000 PPM IN DIET FOR 103 WK (STUDY DURATION: 105 WK), 2500, 5000 PPM IN DIET FOR 103 WK (STUDY DURATION: 105 WK)) “inactive; negative”.
